Source: US12077555B2, “STAT degraders and uses thereof” (Kymera Therapeutics, Inc., priority 2019, dated 2024)

How the values were obtained:
[1] = test system: SU-DHL-1; assay: STAT3 decrease needed for SU-DHL-1 apoptosis and cell growth inhibition (FIG. 8, 17); assay type: cell-based
Description: FIG. 8 depicts that a decrease of STAT3 by 90% using I-103 is necessary to induce SU-DHL-1 apoptosis and inhibit cell growth.
FIG. 17 depicts that a decrease of STAT3 by 90% using I-174 and I-94 is necessary to induce SU-DHL-1 apoptosis and inhibit cell growth.

[2] = test system: ALK+ALCL cell lines; assay: growth inhibition in multiple ALK+ALCL cell lines; assay type: cell-based; details: dose response curves, FIG. 16
[3] = test system: SOCS3; assay: STAT3 RT-qPCR assay, SOCS3 mRNA; assay type: cell-based; details: SU-DHL-1 cells
Description: SU-DHL-1 cells were treated with compounds for a designed time. 0.3-0.6 mL lysis buffer with 2-mercaptoethanol was added to the collected cell pellet or monolayer cells. The cells were vortexed until the cell was dispersed and the cells appear lysed. One volume of 70% ethanol was added to each volume of cell homogenate and vortex. 700 μL of the sample was transferred to the spin cartridge and centrifuged at 12000 g for 15s at RT. The flow-through was discarded and the process repeated until the entire samples had been processed. 700 ul wash buffer I was added to the spin cartridge and centrifuged at 12000 g for 15s at RT and the flow-through was discarded. 500 μL wash buffer II with ethanol was added to the spin cartridge and centrifuged at 12000 g for 15s at RT and the flow-through was discarded. The process was then repeated. The spin cartridge was centrifuged at 12000 g for 2 min to dry the membrane with bound RNA. 30-100 μL RNase-free water was added to the center of the spin cartridge and incubated for 1 min at RT. […] The concentration of the RNA was quantitated using Nano-Drop. cDNA was formed from the RNA by reverse transcription and qPCR of the cDNA with primer of the gene of interest and housekeeping gene was preformed using the volumes below: […]

[4] = test system: KI-JK cells; assay: CellTiter-Glo cell viability, KI-JK; assay type: cell-based
[5] = test system: KARPAS-299 cells; assay: CellTiter-Glo cell viability, KARPAS-299; assay type: cell-based
[6] = test system: SU-DHL-1 cells; assay: Wash-out study in SU-DHL-1 cells; assay type: cell-based; details: 1 uM compound for 24 and 48 hr, then wash-out; FIGS. 10 and 18
Description: I-103 and I-174 were tested in the wash-out protocol.
• Seed cell suspension in T75 flasks and treat with 0.1% DMSO and 1 uM compound for 24 and 48 hr. Day 0 • Collect cell suspension from the flasks in conical tubes after 24 and 48 hr, spin down at 1,000 rpm for 5 min. • Remove supernatant. Wash with PBS, spin down at 1,000 rpm for 5 min, repeat PBS wash one more time. • Seed the cells at 2,000 cells per well in 384-well plates for growth inhibition measurement via CellTiterGlo (CTG) and 10,000 cells per well in 96-well plates for STAT3 levels via MSD. • Measure T0 for CTG and collect pellets to measure levels of STAT3 by MSD Day 1-4 • Measure CTG every day for 4 days post wash-out. • Collect pellets and measure levels of STAT3 by MSD every day for 4 days post wash-out. Growth inhibition was normalized to T0 and graphed as % control.

[7] = test system: SU-DHL-1 tumor cells; assay: Xenograph tumor study, SU-DHL-1; assay type: in vivo, NOD SCID mice; details: for tumor volume, 5 days / tumor volume, 10 days / tumor volume, 15 days / tumor volume, 20 days: SUDHL-1 xenograph, 2.5-30 mg/kg, 2 days on/5 days off
Description: Animals: 50 6-8 week old female NOD SCID mice weighing 18 to 20 grams. 25 mice were used in each study.
Method for Tumor Inoculation: Each mouse was inoculated subcutaneously with SU-DHL-1 tumor cells (1×107+Matrigel) or SUP-M2 tumor cells (5×106+Matrigel) in 0.1 ml of RPMI1640 medium supplemented with 10% FBS, 100 U/ml penicillin and […] streptomycin for tumor development. Mice were then assigned to groups such that the mean tumor volume was the same for each treatment group and time point. […] Vehicle was 25% HP-β-CD in water adjusted to pH 7.4.
Measurement Parameters: Study animals were monitored not only for tumor growth but also behavior such as mobility, food and water consumption (by cage side checking only), body weight (BW), eye/hair matting and any other abnormal effect. Any mortality and/or abnormal clinical signs was recorded. Sponsor was notified immediately if abnormal clinical signs, or if tolerability issues were observed. Body weights of all animals were measured and recorded twice per week. The measurement of tumor size was conducted twice weekly with a caliper and recorded. The tumor volume (mm3) was estimated using the formula: TV=a×b2/2, where “a” and “b” are long and short diameters of a tumor, respectively.

## Cn1c(=O)n(C2CCC(=O)NC2=O)c2ccc(C[C@H]3CC[C@@H](CC(=O)N4CC[C@H]5CC[C@@H](C(=O)N[C@@H](CCC(N)=O)C(=O)NC(c6ccccc6)c6ccccc6)N5C(=O)[C@@H](NC(=O)c5cc6cc(C(=O)P(=O)(O)O)ccc6[nH]5)C4)CC3)cc21 (stereo partly drawn) [Compound I-174, 2-[[(5S,8S,10aR)-8-[[(1S)-3-carbamoyl-1-(diphenylmethylcarbamoyl)propyl]carbamoyl]-6-oxo-3-[2-[(1s,4s)-4-[[1-(2,6-dioxopiperidin-3-yl)-3-methyl-2-oxo-1,3-benzodiazol-5-yl]methyl]cyclohexyl]acetyl]-octahydropyrrolo[1,2-a][1,5]diazocin-5-yl]carbamoyl]-1H-indole-5-carbonylphosphonic acid]
[1]
  decrease of STAT3 necessary to induce SU-DHL-1 apoptosis and inhibit cell growth: 90%
[2]
  growth inhibition in multiple ALK+ALCL cell lines: mediated growth inhibition
[3]; Homo sapiens, 24 hr
  IC50: 0.022 µM
[3]; FIG. 5A, FIG. 15
  STAT3-dependent gene expression of SOCS3: downregulates
[4]; 96 h, ALCL (ALK+), Day 4, read-out: CTG, IC50 μM, Day 4
  IC50: 0.047 µM
[4]; ALCL (ALK+), Day 4
  CTG (% Max inh), Day 4: (97) %
[4]; FIG. 16
  cell proliferation: inhibit
[5]; Homo sapiens, 96 h, KARPAS-299, ALCL (ALK+), Day 4, read-out: CTG, IC50 μM, Day 4
  IC50: 0.084 µM
[5]; KARPAS-299, ALCL (ALK+), Day 4
  CTG (% Max inh), Day 4: (90) %
[5]; KARPAS-299, FIG. 16
  cell proliferation: inhibit
[6]
  viability of SU-DHL-1 cells after wash-out: profound effects on the viability of SU-DHL-1 cells
[7]; ALK+ALCL xenograph model SU-DHL-1, intermittent dosing, FIG. 19
  tumor regression: achieves tumor regression
[7]; IP
  tumor volume, 5 days: A (A<500 mm^3)
  tumor volume, 10 days: A (A<500 mm^3)
  tumor volume, 15 days: A (A<500 mm^3)
  tumor volume, 20 days: A (A<500 mm^3)
[7]; IV
  tumor volume, 5 days: A (A<500 mm^3)
  tumor volume, 10 days: A (A<500 mm^3)
  tumor volume, 15 days: A (A<500 mm^3)
  tumor volume, 20 days: A (A<500 mm^3)
